In patent publication US10259810B2, “N-sulfonylated pyrazolo[3,4-b]pyridin-6-carboxamides and method of use” (AbbVie S.à.r.l., priority 2015, dated 2019):

Tests used:
Type in all cases: cell-based
ΔF508-CFTR [1] = target: T1, ΔF508-CFTR (Homo sapiens, UniProt P13569, DEL508-508); test: CFTR cell surface levels using HRP-tagged ΔF508-CFTR expressing CFBE cells, in the presence of a co-corrector; settings: HRP-tagged ΔF508-CFTR CFBE cells, in the presence of 3 μM co-corrector; for EC50: read-out: EC50
T1 construct: host or cells: CFBE41o-, doxycycline-inducible
T1 sequence (P13569 with tags, fused parts or gaps DEL508-508): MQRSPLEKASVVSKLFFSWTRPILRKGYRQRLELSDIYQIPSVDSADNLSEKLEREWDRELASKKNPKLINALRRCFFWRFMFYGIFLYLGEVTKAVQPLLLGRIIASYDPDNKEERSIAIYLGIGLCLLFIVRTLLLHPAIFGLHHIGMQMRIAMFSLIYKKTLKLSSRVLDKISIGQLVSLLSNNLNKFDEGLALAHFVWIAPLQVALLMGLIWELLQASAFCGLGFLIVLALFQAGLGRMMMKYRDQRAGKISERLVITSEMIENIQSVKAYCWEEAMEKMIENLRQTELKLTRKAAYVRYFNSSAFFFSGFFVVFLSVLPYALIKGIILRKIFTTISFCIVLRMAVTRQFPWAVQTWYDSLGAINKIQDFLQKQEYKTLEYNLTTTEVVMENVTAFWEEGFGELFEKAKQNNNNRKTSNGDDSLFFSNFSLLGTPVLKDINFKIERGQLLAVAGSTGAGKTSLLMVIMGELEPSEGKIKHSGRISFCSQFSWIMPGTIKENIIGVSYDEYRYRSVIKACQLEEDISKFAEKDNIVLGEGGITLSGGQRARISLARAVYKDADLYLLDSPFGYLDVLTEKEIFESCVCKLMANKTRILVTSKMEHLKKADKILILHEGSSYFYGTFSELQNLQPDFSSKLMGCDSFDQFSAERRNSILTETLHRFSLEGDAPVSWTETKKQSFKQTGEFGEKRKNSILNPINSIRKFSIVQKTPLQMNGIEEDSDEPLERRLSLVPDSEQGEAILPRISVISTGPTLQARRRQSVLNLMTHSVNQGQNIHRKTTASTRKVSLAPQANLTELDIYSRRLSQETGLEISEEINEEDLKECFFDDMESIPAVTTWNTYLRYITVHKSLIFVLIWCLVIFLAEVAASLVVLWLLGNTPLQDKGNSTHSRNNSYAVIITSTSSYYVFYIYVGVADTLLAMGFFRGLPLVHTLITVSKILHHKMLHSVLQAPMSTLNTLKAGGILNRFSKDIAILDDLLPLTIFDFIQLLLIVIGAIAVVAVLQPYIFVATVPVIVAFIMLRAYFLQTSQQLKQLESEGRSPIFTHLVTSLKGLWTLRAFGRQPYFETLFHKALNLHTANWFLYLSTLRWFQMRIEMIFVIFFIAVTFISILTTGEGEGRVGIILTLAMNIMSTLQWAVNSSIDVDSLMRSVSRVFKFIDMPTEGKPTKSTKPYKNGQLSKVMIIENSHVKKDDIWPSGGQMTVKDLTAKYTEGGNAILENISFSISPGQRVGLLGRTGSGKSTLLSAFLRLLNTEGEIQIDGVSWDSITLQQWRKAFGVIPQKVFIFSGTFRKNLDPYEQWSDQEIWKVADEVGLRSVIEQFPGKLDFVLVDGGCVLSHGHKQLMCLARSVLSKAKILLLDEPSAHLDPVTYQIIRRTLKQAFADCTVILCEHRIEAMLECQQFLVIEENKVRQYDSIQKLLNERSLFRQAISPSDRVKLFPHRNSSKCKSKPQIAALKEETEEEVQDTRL
Method in brief: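 Chemiluminescent read-out of surface HRP (15 min, dark) after PBS washes. Activity is normalized as 100×(sample−DMSO)/(3 μM co-corrector alone−DMSO).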

ΔF508-CFTR [2] = target: T1, ΔF508-CFTR; test: CFTR cell surface levels using HRP-tagged ΔF508-CFTR expressing CFBE cells, intrinsic corrector capacity; set-up: % Activation: concentration or dose not given beside the values; settings: HRP-tagged ΔF508-CFTR expressing CFBE41o- cells, compound alone (intrinsic corrector capacity), 20 hours at 33° C.; for EC50: read-out: EC50
Method in brief: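 Read-out: chemiluminescent HRP activity of ECL4-HRP-tagged ΔF508-CFTR at the cell surface, 15 min substrate in dark. Normalized as 100×(sample−DMSO)/(positive control−DMSO).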

CFTR ΔF508 = target: T2, CFTR ΔF508 (Homo sapiens, UniProt P13569, DEL508-508); test: Chronic TECC assay, primary bronchial epithelial cells of CF patients homozygous for CFTR ΔF508 (corrector, co-corrector and potentiator); settings: chronic TECC, AUC = full area under the curve upon forskolin stimulation; for % Activity at 1 μM (AUC**): test compound at 1 μM; for EC50: read-out: EC50 (nM) (AUC**)
T2 construct: bronchial epithelial cells isolated from CF patients homozygous for the CFTR ΔF508 mutation; McGill University; Asterand; University of North Carolina hAEC-CF; host or cells: primary human bronchial epithelial cells from CF patients homozygous for ΔF508, differentiated at air-liquid interface
T2 sequence (P13569 with tags, fused parts or gaps DEL508-508): as above
Method in brief: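 Primary bronchial epithelial cells from ΔF508-homozygous CF patients on collagen IV-coated Transwells were chronically treated with test compound plus corrector and potentiator, which were re-added before recording. Ieq was derived from PD and Rt in NaCl-Ringer, pH 7.4, at 37° C, with apical amiloride and bilateral forskolin, recorded every 2 min over 20 min. Ieq increase was normalized to controls, and EC50 was taken from per-well concentrations.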

Row | SMILES | % Activation (ΔF508-CFTR [1]) [%] | EC50 (ΔF508-CFTR [1]) [nM] | % Activation (ΔF508-CFTR [2]) [%] | EC50 (ΔF508-CFTR [2]) [nM] | % Activity at 1 μM (AUC**) (CFTR ΔF508) [%] | EC50 (CFTR ΔF508) [nM] | % Activity at 3 μM (AUC**) (CFTR ΔF508; test compound at 3 μM) [%]
1 | CC(C)Oc1nn(C2CCCCC2)c2nc(C(=O)NS(=O)(=O)N(C)C)cc(-c3ccc(CN4CCOCC4)cc3)c12 [Compound 406, 1-cyclohexyl-N-(dimethylsulfamoyl)-4-{4-[(morpholin-4-yl)methyl]phenyl}-3-[(propan-2-yl)oxy]-1H-pyrazolo[3,4-b]pyridine-6-carboxamide] | 311.35 | 182 | 125.95 | 241 | 235 |  | 
2 | COCCS(=O)(=O)NC(=O)c1cc(N2CCC(N3CCOCC3)CC2)c2c(C3CCC3)nn(-c3ccc(F)cc3)c2n1 [Compound 407, 3-cyclobutyl-1-(4-fluorophenyl)-N-(2-methoxyethanesulfonyl)-4-[4-(morpholin-4-yl)piperidin-1-yl]-1H-pyrazolo[3,4-b]pyridine-6-carboxamide] | 494.15 | 124 | 331.45 | 497 | 310 | 48.9 | 
3 | CN(C)S(=O)(=O)NC(=O)c1cc(N2CCC(CN3CCOCC3)CC2)c2c(C3CCC3)nn(-c3ccc(F)cc3)c2n1 [Compound 409, 3-cyclobutyl-N-(dimethylsulfamoyl)-1-(4-fluorophenyl)-4-{4-[(morpholin-4-yl)methyl]piperidin-1-yl}-1H-pyrazolo[3,4-b]pyridine-6-carboxamide] | 481.1 | 108 | 245.4 | 155 | 420 | 150 | 
4 | CS(=O)(=O)NC(=O)c1cc(N2CCC(CN3CCOCC3)CC2)c2c(C3CCC3)nn(-c3ccc(F)cc3)c2n1 [Compound 410, 3-cyclobutyl-1-(4-fluorophenyl)-N-(methanesulfonyl)-4-{4-[(morpholin-4-yl)methyl]piperidin-1-yl}-1H-pyrazolo[3,4-b]pyridine-6-carboxamide] | 529.58 | 82.4 | 337.42 | 213 | 233.3333 | 1.58 | 
5 | COCCS(=O)(=O)NC(=O)c1cc(N2CCC(CCN3CCOCC3)CC2)c2c(C3CCC3)nn(-c3ccc(F)cc3)c2n1 [Compound 415, 3-cyclobutyl-1-(4-fluorophenyl)-N-(2-methoxyethanesulfonyl)-4-{4-[2-(morpholin-4-yl)ethyl]piperidin-1-yl}-1H-pyrazolo[3,4-b]pyridine-6-carboxamide] | 598 | 69.3 | 365.4 | 165 | 196.1812 | 28.4 | 
6 | CN(C)S(=O)(=O)NC(=O)c1cc(N2CCC(CCN3CCOCC3)CC2)c2c(C3CCC3)nn(-c3ccc(F)cc3)c2n1 [Compound 416, 3-cyclobutyl-N-(dimethylsulfamoyl)-1-(4-fluorophenyl)-4-{4-[2-(morpholin-4-yl)ethyl]piperidin-1-yl}-1H-pyrazolo[3,4-b]pyridine-6-carboxamide] | 458.65 | 65 | 288 | 142 | 288.6036 | 119 | 
7 | COCC1CCN(c2cc(C(=O)NS(=O)(=O)CC3COCCO3)nc3c2c(C2CCC2)nn3-c2ccccc2)CC1 (centres unmarked) [Compound 417, 3-cyclobutyl-N-[(1,4-dioxan-2-yl)methanesulfonyl]-4-[4-(methoxymethyl)piperidin-1-yl]-1-phenyl-1H-pyrazolo[3,4-b]pyridine-6-carboxamide] | 539.75 | 91.9 | 307.45 | 190 | 256.6667 |  | 
8 | CS(=O)(=O)NC(=O)c1cc(N2CCC(N3CCOCC3)CC2)c2c(C3CCC3)nn(C3CCCCC3)c2n1 [Compound 418, 3-cyclobutyl-1-cyclohexyl-N-(methanesulfonyl)-4-[4-(morpholin-4-yl)piperidin-1-yl]-1H-pyrazolo[3,4-b]pyridine-6-carboxamide] | 512.9 | 221 | 321.3 | 321 | 196.6667 | 19.2 | 
9 | CN(C)S(=O)(=O)NC(=O)c1cc(N2CCC(N3CCOCC3)CC2)c2c(C3CCC3)nn(C3CCCCC3)c2n1 [Compound 420, 3-cyclobutyl-1-cyclohexyl-N-(dimethylsulfamoyl)-4-[4-(morpholin-4-yl)piperidin-1-yl]-1H-pyrazolo[3,4-b]pyridine-6-carboxamide] | 486.65 | 209 | 283.1 | 472 | 223.3333 |  | 
10 | CC(C)Oc1nn(C2CCCCC2)c2nc(C(=O)NS(C)(=O)=O)cc(-c3ccc(C(=O)N4CCN(C)CC4)cc3)c12 [Compound 422, 1-cyclohexyl-N-(methanesulfonyl)-4-[4-(4-methylpiperazine-1-carbonyl)phenyl]-3-[(propan-2-yl)oxy]-1H-pyrazolo[3,4-b]pyridine-6-carboxamide] | 434.33 | 204 | 222.8 | 318 | 320 |  | 
11 | CC(C)Oc1nn(C2CCCCC2)c2nc(C(=O)NS(=O)(=O)N(C)C)cc(-c3ccc(C(=O)N4CCN(C)CC4)cc3)c12 [Compound 423, 1-cyclohexyl-N-(dimethylsulfamoyl)-4-[4-(4-methylpiperazine-1-carbonyl)phenyl]-3-[(propan-2-yl)oxy]-1H-pyrazolo[3,4-b]pyridine-6-carboxamide] | 376.85 | 109 | 175.55 | 140 | 365 | 39.8 | 
12 | CN(C)S(=O)(=O)NC(=O)c1cc(N2CCC(CN3CCOCC3)CC2)c2c(C3CCC3)nn(C3CCCCC3)c2n1 [Compound 424, 3-cyclobutyl-1-cyclohexyl-N-(dimethylsulfamoyl)-4-{4-[(morpholin-4-yl)methyl]piperidin-1-yl}-1H-pyrazolo[3,4-b]pyridine-6-carboxamide] | 453.88 | 92.2 | 249.25 | 244 |  |  | 462.0976
13 | O=C(NS(=O)(=O)C1CCOC1)c1cc(N2CCC(N3CCOCC3)CC2)c2c(C3CCC3)nn(-c3ccc(F)cc3)c2n1 (centres unmarked) [Compound 429, 3-cyclobutyl-1-(4-fluorophenyl)-4-[4-(morpholin-4-yl)piperidin-1-yl]-N-(oxolane-3-sulfonyl)-1H-pyrazolo[3,4-b]pyridine-6-carboxamide] | 422.8 | 205 | 252.1 | 378 | 180 | 83.8 | 
14 | CS(=O)(=O)NC(=O)c1cc(N2CCC(CCN3CCOCC3)CC2)c2c(C3CCC3)nn(-c3ccc(F)cc3)c2n1 [Compound 431, 3-cyclobutyl-1-(4-fluorophenyl)-N-(methanesulfonyl)-4-{4-[2-(morpholin-4-yl)ethyl]piperidin-1-yl}-1H-pyrazolo[3,4-b]pyridine-6-carboxamide] | 568.8 | 47 | 344.95 | 109 | 280 |  | 
15 | CC(C1CCN(c2cc(C(=O)NS(=O)(=O)N(C)C)nc3c2c(C2CCC2)nn3-c2ccc(F)cc2)CC1)N1CCOCC1 (centres unmarked) [Compound 440, 3-cyclobutyl-N-(dimethylsulfamoyl)-1-(4-fluorophenyl)-4-{4-[1-(morpholin-4-yl)ethyl]piperidin-1-yl}-1H-pyrazolo[3,4-b]pyridine-6-carboxamide] | 543.55 | 55.4 | 334.8 | 129 | 696.6667 | 2.98 | 
16 | CC(C)Oc1nn(C2CCCCC2)c2nc(C(=O)NS(C)(=O)=O)cc(-c3ccc(CN4CCN(C)CC4)cc3)c12 [Compound 441, 1-cyclohexyl-N-(methanesulfonyl)-4-{4-[(4-methylpiperazin-1-yl)methyl]phenyl}-3-[(propan-2-yl)oxy]-1H-pyrazolo[3,4-b]pyridine-6-carboxamide] | 393.27 | 196 | 196.1 | 350 | 236.6667 | 206 | 
17 | CC(C1CCN(c2cc(C(=O)NS(C)(=O)=O)nc3c2c(C2CCC2)nn3-c2ccc(F)cc2)CC1)N1CCOCC1 (centres unmarked) [Compound 445, 3-cyclobutyl-1-(4-fluorophenyl)-N-(methanesulfonyl)-4-{4-[1-(morpholin-4-yl)ethyl]piperidin-1-yl}-1H-pyrazolo[3,4-b]pyridine-6-carboxamide] | 671.25 | 59.1 | 393.1 | 111 | 406.6667 |  | 
